Values after ≈ are worked out from the molar mass of the structure shown.
Experiments:
Δ6-Pore cells = experiment: Minimal inhibitory concentration (MIC) of fluorescent probes; type: cell-based, P. aeruginosa
Source text: For assessing antibacterial activities, compounds will be analyzed against four strains of P. aeruginosa: WT and ΔEfflux (lacking mexAB-OprM, mexCD-OprJ, mexXY), and their hyperporinated variants WT-Pore and ΔEfflux-Pore (FIGS. 2A-C) (Krishnamoorthy et al., 2016 and Krishnamoorthy et al., 2017). Based on minimal inhibitory concentrations (MIC) and growth IC50, compounds will be grouped as affected by efflux or by OM barriers. […] The inventors expect that at least 50% of the compounds in the library will have antibacterial activities in the hyperporinated efflux-deficient ΔEfflux-Pore. The -fold changes in MICs in the four strains will be used to guide selection of the compounds for detailed studies.
The inventors will use a fluorescence-based assay in which a fluorescent probe, a substrate of efflux pumps, reports EPI activities. Exponentially grown cells will be transferred into a defined medium, dispensed into 96-well plates with increasing concentrations of EPIs, and incubated for a pre-determined time. The probe will be added to cells and fluorescence recorded at different time points. Compounds with efflux inhibiting activities will increase the uptake of the probe and as a result increase the probe fluorescence (FIG. 3) (Abdali et al., 2017). […]

[1] = system: E. coli BW25113 and P. aeruginosa PAO1; experiment: Screen of NCI Diversity sets for antibacterial and EPI activities, with profiling of actives; type: cell-based
Source text: The inventors screened NCI Diversity sets in E. coli BW25113 and P. aeruginosa PAO1 for antibacterial and EPI activities. From ˜2,000 compounds tested, the inventors identified 34 active compounds (Abdali et al., 2017). […] Synthetic procedures for modifying NSC 60339 has been described before (Abdali et al., 2017 and Gamage et al., 2013). Because clinically-important antibiotics are extensively optimized, the inventors have chosen to focus on fluoroquinolones, tetracyclines, oxazolidinones, phenicols and macrolides/ketolides representatives that are known to penetrate through both the LPS-phospholipid bilayer and porins of the OM and include both broad and narrow spectrum antibiotics.

[2] = system: E. coli strains BW25113, ΔEfflux, WT-Pore and ΔEfflux-Pore; experiment: Fluorescence-based intracellular uptake of compounds in efflux-proficient, efflux-deficient and hyperporinated cells (FIG. 3); details: when the cell envelope is compromised, excitation 335 nm
Procedure: For Hoechst or compound uptake experiments, overnight grown cells will be re-inoculated into 30 ml LB broth and grown until OD600 of 1. The cells will then pelleted by centrifugation for 15 min at room temperature and washed once in HMG buffer. The pellet will be resuspended in HMG buffer to OD600 of 2.0 and kept at room temperature during the course of the experiment. For the efflux inhibition or uptake kinetics, 100 μl of Hoechst or compound solution in HMG buffer with and without increasing concentrations of inhibitors at twice the concentrations indicated will be added into a black F-bottom non-binding 96-well plate. Fluorescence of Hoechst or compounds will be followed at λex=355 nm and λem=450 nm. To this, 100 μl of cells at OD600 of 2.0 was injected, shaken for 6 sec and the fluorescence of Hoechst will be monitored continuously for up to 10 min.
The inventors will use a fluorescence-based assay in which a fluorescent probe, a substrate of efflux pumps, reports EPI activities. Exponentially grown cells will be transferred into a defined medium, dispensed into 96-well plates with increasing concentrations of EPIs, and incubated for a pre-determined time. The probe will be added to cells and fluorescence recorded at different time points. Compounds with efflux inhibiting activities will increase the uptake of the probe and as a result increase the probe fluorescence (FIG. 3) (Abdali et al., 2017). The reverse kinetic curves, in which the concentration of the compound is fixed while the probe concentration varies, will be also collected. Detailed quantification of the kinetic data will be performed using two probes: a DNA dye Hoechst 33342 (HT) (Eicher et al., 2012; Nakashima et al., 2011 and Richmond et al., 2013) and a novel SLU-417 probe that were synthesized during a focused synthetic effort (Haynes et al., 2017). HT is a topoisomerase inhibitor with the MIC 2 μM in Δ6-Pore cells. In contrast, SLU-417 is relatively inert with MIC≥50 μM, which should reduce possible non-specific effect during drug uptake measurements.
Experiments were carried out in four E. coli strains, BW25113, a wild type strain with efflux pumps, ΔEfflux, a cell line in which the efflux pumps have been inactivated by removal of tolC gene and their hyperporinated variants WT-Pore and ΔEfflux-Pore. Four compounds were tested in these cell lines which show increased fluorescence intensity in cells in which the efflux pumps have been removed (FIG. 3).

SMILES	intracellular uptake [2]	further results
CCOc1ccc(-c2nc3ccc(-c4nc5ccc(N6CCN(C)CC6)cc5[nH]4)cc3[nH]2)cc1 [HT, Hoechst 33342, reference compound]		MIC (Δ6-Pore cells; Δ6-Pore cells): 2 µM (≈ 0.905 µg/mL)
O=C(Nc1ccc(C2=NCCN2)cc1)c1ccc(C(=O)Nc2ccc(C3=NCCN3)cc2)c(Cl)c1 [NSC 60339]		antibacterial and anti-MFP (Membrane Fusion Protein) activities [1]: have both antibacterial and anti-MFP; substrate of efflux pumps [1]: modest substrate of efflux pumps
CC(C)c1ccc(/C=C/C(=O)Nc2ccc(C3=NCCN3)cc2)cc1 [SLU-417]	increases	MIC (Δ6-Pore cells; Pseudomonas aeruginosa): ≥ 50 µM
O=C(Nc1ccc(C2=NCCN2)cc1)c1ccc(-c2cc(Cl)cc(Cl)c2)s1 [SLU-446]	increases	
COc1ccc(/C=C/C(=O)Nc2ccc(C3=NCCN3)cc2)cc1 [SLU-448]	increases	
O=C(Nc1ccc(C2=NCCN2)cc1)c1cc2cc(Cl)ccc2o1 [SLU-843]	increases	

From patent publication US11092549B2, “Fluorescent probes for drug permeability in gram negative bacteria” (Saint Louis University, priority 2018, dated 2021)
